# Assay results from patent US20090298878A1, “OXIME COMPOUNDS AND THE USE THEREOF” (priority 2006, published 2009).
# Target: T1, N-type calcium channel (NTCC) (Homo sapiens, UniProt Q00975)
# T1 construct: host or cells: IMR32 cells differentiated with dibutyryl cAMP and bromodeoxyuridine
# Assay: FLIPR calcium mobilization assay for N-type calcium channel (differentiated IMR32 cells)
# Type: cell-based
# Settings: about 1.0 μM or less; calcium mobilization and/or electrophysiological assay
# Experimental: Cell maintenance and differentiation. Unless noted otherwise, cell culture reagents were purchased from Mediatech of Hemdon, Md. IMR32 cells (American Type Culture Collection, ATCC, Manassas, Va.) were routinely cultured in growth medium consisting of minimum essential medium containing 10% fetal bovine serum (FBS, Hyclone, Logan, Utah), 100 U/mL penicillin, 100 μg/mL streptomycin, 2 mM L-glutamine, 1 mM sodium pyruvate, and 1× MEM non-essential amino acids. 80-90% confluent flasks of cells were differentiated using the following differentiation medium: Growth medium plus 1 mM dibutyryl cyclic AMP (Sigma, St. Louis, Mo.), and 2.5 μM bromodeoxyuridine (Sigma). Cells were differentiated for 8 days by replacing differentiation medium every 2-3 days.
# FLIPR Calcium Mobilization Assay for N-type Calcium Channel. One day prior to performing this assay, differentiated IMR32 cells were treated with 1× CellStripper, and seeded on poly-D-lysine-coated 96-well clear-bottom black plates (Becton Dickinson, Franklin Lakes, N.J.) at 200,000 cells/well. On the day of the assay, the cell plates were washed with IMR32 buffer (127 mM NaCl, 1 mM KCl, 2 mM MgCl2, 700 μM NaH2PO4, 5 mM CaCl2, 5 mM NaHCO3, 8 mM HEPES, 10 mM glucose, pH 7.4), then pre-stimulated with KCl and loaded as follows: 0.05 mL of IMR32 buffer, 0.05 mL of each compound tested diluted in IMR32 buffer containing 20 μM nitrendipine (Sigma), and 0.1 mL KCl dissolved in IMR32 buffer, plus Fluo-4 were added (3 μM final concentration, Molecular Probes, Eugene, Oreg.). Final test compound concentrations ranged from about 846 pM to about 17 μM, final nitrendipine concentration was 5 μM, and final KCl concentration was 90 mM. After 1 hour, the cells were washed twice with 0.05 mL of each compound tested in nitrendipine-containing IMR32 buffer (no KCl or Fluo-4), and then replaced with 0.1 mL of each compound tested in nitrendipine-containing IMR32 buffer. Plates were then transferred to a Fluorimetric imaging Plate Reader (FLIPR^96, Molecular Devices, Inc., Sunnyvale, Calif.) for assay. The FLIPR measured basal Fluo-4 fluorescence for 315 seconds (i.e., 5 minutes and 15 seconds), then added 0.1 mL KCl agonist dissolved in IMR32 buffer and measured fluorescence for another 45 seconds. Final test compound concentrations on the cells after FLIPR read ranged from about 846 pM to about 17 μM, final nitrendipine concentration was 5 μM, and final KCl concentration was 90 mM. Data were collected over the entire time course and analyzed using Excel, Graph Pad Prism (version 3.02, Graph Pad, San Diego, Calif.), or an in-house non-linear regression analysis software.
# T1 sequence (Q00975 whole entry): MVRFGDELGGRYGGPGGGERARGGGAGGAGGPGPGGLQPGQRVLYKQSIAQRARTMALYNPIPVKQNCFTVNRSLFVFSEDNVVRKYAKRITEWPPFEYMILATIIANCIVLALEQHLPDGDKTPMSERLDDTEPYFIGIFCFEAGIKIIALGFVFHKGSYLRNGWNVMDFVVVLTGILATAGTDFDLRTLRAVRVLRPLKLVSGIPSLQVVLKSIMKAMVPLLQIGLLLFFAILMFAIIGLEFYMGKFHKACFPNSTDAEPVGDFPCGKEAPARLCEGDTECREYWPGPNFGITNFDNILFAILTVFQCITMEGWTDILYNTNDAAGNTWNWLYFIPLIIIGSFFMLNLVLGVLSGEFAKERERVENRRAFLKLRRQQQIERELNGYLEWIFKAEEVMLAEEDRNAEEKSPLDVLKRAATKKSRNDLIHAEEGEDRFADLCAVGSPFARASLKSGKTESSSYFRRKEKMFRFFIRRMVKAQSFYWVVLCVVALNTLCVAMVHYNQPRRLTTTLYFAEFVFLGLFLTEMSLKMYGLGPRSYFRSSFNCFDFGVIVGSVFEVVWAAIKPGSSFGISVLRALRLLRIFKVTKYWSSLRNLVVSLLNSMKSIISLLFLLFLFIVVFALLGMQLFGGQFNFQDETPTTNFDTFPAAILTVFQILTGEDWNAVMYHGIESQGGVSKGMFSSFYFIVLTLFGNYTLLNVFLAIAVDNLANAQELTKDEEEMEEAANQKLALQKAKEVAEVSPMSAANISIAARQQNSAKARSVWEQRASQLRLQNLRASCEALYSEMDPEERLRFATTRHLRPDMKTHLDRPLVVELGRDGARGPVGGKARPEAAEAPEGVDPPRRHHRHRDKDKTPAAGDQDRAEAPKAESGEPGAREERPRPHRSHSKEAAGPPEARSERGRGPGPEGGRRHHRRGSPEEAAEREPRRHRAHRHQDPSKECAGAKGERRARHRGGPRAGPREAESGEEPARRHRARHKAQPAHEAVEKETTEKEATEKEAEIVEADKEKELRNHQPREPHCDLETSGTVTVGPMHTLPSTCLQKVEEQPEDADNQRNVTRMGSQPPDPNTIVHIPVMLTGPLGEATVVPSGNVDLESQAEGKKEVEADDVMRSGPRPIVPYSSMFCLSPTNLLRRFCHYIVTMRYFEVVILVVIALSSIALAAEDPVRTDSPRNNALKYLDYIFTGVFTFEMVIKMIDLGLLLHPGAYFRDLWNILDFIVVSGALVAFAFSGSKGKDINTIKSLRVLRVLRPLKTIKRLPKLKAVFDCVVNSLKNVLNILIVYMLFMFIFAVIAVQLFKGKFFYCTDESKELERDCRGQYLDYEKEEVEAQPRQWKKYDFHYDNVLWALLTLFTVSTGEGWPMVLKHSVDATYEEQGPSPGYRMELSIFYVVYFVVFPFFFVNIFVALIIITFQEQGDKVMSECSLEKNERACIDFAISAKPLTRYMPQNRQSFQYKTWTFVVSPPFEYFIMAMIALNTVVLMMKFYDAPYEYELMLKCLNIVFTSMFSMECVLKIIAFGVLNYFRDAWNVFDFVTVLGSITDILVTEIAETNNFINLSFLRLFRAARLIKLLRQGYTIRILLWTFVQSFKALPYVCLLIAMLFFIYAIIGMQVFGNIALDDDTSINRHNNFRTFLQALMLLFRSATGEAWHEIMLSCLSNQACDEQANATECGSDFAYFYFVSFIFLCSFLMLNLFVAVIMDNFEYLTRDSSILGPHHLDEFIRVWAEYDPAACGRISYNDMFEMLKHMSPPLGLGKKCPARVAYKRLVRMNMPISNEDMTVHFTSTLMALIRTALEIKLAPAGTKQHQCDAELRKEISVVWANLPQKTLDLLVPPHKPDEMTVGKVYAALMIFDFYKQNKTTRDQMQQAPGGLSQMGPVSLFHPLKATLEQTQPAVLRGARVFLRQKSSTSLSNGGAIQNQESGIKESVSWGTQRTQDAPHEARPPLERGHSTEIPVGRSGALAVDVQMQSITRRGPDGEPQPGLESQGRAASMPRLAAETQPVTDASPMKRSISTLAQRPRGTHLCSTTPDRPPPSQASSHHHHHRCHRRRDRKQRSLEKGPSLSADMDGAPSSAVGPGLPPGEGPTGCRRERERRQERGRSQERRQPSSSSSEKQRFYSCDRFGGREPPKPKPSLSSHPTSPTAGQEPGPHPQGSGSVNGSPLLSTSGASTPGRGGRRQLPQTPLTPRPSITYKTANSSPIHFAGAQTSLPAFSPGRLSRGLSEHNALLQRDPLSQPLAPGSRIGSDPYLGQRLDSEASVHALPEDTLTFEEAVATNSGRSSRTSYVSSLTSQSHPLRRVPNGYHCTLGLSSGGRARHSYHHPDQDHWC
row,SMILES,IC50 [nM]
1,"O=S(=O)(c1ccc(F)c(F)c1)N1CCC(=NOC(c2ccc(F)cc2)c2ccc(F)cc2)CC1 [Example 243, 1-(3,4-Difluorophenylsulfonyl)piperidin-4-one O-bis(4-fluorophenyl)methyl oxime]",≤ 1000
2,"COc1cc(CON=C2CCN(S(=O)(=O)c3ccc(OC(F)(F)F)cc3)CC2)cc(Cl)n1 [Example 147, 1-(4-Trifluoromethoxybenzenesulfonyl)piperidin-4-one O-(2-chloro-6-methoxypyridin-4-ylmethyl)oxime]",≤ 1000
3,"COc1ccccc1S(=O)(=O)N1CCC(=NOC(c2ccc(F)cc2)c2ccc(F)cc2)CC1 [Example 238, 1-(2-Methoxyphenylsulfonyl)piperidin-4-one O-bis(4-fluorophenyl)methyl oxime]",≤ 1000
4,"O=S(=O)(c1cccc(OC(F)(F)F)c1)N1CCC(=NOCc2cccc(C(F)(F)F)c2)CC1 [Example 59, 1-(3-Trifluoromethoxybenzenesulfonyl)piperidin-4-one O-(3-trifluoromethylbenzyl)oxime]",≤ 1000
5,N#Cc1ccc(S(=O)(=O)N2CCC(=NOCc3cccc(C#N)c3)CC2)cc1 [Example 199],≤ 1000
6,"O=c1cc(CON=C2CCN(S(=O)(=O)c3ccc(OC(F)(F)F)cc3)CC2)ccn1Cc1ccc(F)cc1 [Example 296, 1-(4-Fluorobenzyl)-4-((1-(4-(trifluoromethoxy)phenylsulfonyl)piperidin-4-ylideneaminooxy)methyl)pyridin-2(1H)-one]",≤ 1000
7,"O=S(=O)(c1cccc(C(F)(F)F)c1)N1CCC(=NOCCc2ccccc2)CC1 [Example 310, 1-(3-(Trifluoromethyl)phenylsulfonyl)piperidin-4-one O-phenethyl oxime]",≤ 1000
8,"N#Cc1cccc(CON=C2CCN(S(=O)(=O)c3ccc(F)c(F)c3)CC2)c1 [Example 210, 3-((1-(3,4-Difluorophenylsulfonyl)piperidin-4-ylideneaminooxy)methyl)benzonitrile]",≤ 1000
9,"O=S(=O)(c1ccc(OC(F)(F)F)cc1)N1CCC(=NOCc2nc3ccccc3[nH]2)CC1 [Example 162, 1-(4-(Trifluoromethoxy)phenylsulfonyl)piperidin-4-one O-(1H-benzo[d]imidazol-2-yl)methyl oxime]",≤ 1000
10,"CC(C)Oc1ccc(S(=O)(=O)N2CCC(=NOCc3cccc(C(F)(F)F)c3)CC2)cc1 [Example 93, 1-(4-Isopropoxybenzenesulfonyl)piperidin-4-one O-(3-trifluoromethylbenzyl)oxime]",≤ 1000
11,"O=S(=O)(c1cccc2cccnc12)N1CCC(=NOC(c2ccc(F)cc2)c2ccc(F)cc2)CC1 [Example 251, 1-(Quinolin-8-ylsulfonyl)piperidin-4-one O-bis(4-fluorophenyl)methyl oxime]",≤ 1000
12,"O=S(=O)(c1cccc(C(F)(F)F)c1)N1CCC(=NOC2CCCCC2)CC1 [Example 309, 1-(3-(Trifluoromethyl)phenylsulfonyl)piperidin-4-one O-cyclohexyl oxime]",≤ 1000
13,"N#Cc1cccc(C(CO)ON=C2CCN(S(=O)(=O)c3ccc(OC(F)(F)F)cc3)CC2)c1 (centres unmarked) [Example 191, 3-(2-Hydroxy-1-(1-(4-(trifluoromethoxy)phenylsulfonyl)piperidin-4-ylideneaminooxy)ethyl)benzonitrile]",≤ 1000
14,"CCCCc1ccc(S(=O)(=O)N2CCC(=NOCc3cccc(OC)n3)CC2)cc1 [Example 76, 1-(4-Butylbenzenesulfonyl)piperidin-4-one O-(6-methoxypyridin-2-ylmethyl)oxime]",≤ 1000
15,"CCCCC(C)ON=C1CCN(S(=O)(=O)c2cccc(C(F)(F)F)c2)CC1 (centres unmarked) [Example 367, 1-(3-(Trifluoromethyl)phenylsulfonyl)piperidin-4-one O-hexan-2-yl oxime]",≤ 1000
16,"O=C(CCC(c1ccc(F)cc1)c1ccc(F)cc1)N1CCC(=NOCc2ccccc2)CC1 [Example 31, 1-[4,4-Bis-(4-fluorophenyl)butyryl]piperidin-4-one O-benzyloxime]",≤ 1000
17,"Cn1c(Cl)cc(CON=C2CCN(S(=O)(=O)c3ccc(OC(F)(F)F)cc3)CC2)cc1=O [Example 152, 6-Chloro-1-methyl-4-[1-(4-trifluoromethoxybenzenesulfonyl)piperidin-4-ylideneaminooxymethyl]-1H-pyridin-2-one]",≤ 1000
18,"N#Cc1ccccc1S(=O)(=O)N1CCC(=NOC(c2ccc(F)cc2)c2ccc(F)cc2)CC1 [Example 229, 2-(4-(Bis(4-fluorophenyl)methoxyimino)piperidin-1-ylsulfonyl)benzonitrile]",≤ 1000
19,"O=S(=O)(c1ccc(OC(F)(F)F)cc1)N1CCC(=NOC(c2ccc(F)cc2)C2CC2)CC1 (centres unmarked) [Example 306, 1-(4-(Trifluoromethoxy)phenylsulfonyl)piperidin-4-one O-cyclopropyl(4-fluorophenyl)methyl oxime]",≤ 1000
20,"CCCCc1ccc(S(=O)(=O)N2CCC(=NOCc3cccc(OC(F)(F)F)c3)CC2)cc1 [Example 79, 1-(4-Butylbenzenesulfonyl)piperidin-4-one O-(3-trifluoromethoxybenzyl)oxime]",≤ 1000
21,"CCCCc1ccc(S(=O)(=O)N2CCC(=NOCc3ccccn3)CC2)cc1 [Example 68, 1-(4-Butylbenzenesulfonyl)piperidin-4-one O-pyridin-2-ylmethyloxime]",≤ 1000

# Results, then the compound that gave them:
row,IC50 [nM],SMILES
1,≤ 1000,"N#Cc1ccc(S(=O)(=O)N2CCC(=NOC(c3ccc(F)cc3)c3ccc(F)cc3)CC2)cc1 [Example 256, 4-(4-(Bis(4-fluorophenyl)methoxyimino)piperidin-1-ylsulfonyl)benzonitrile]"
2,≤ 1000,"N#Cc1cccc(C(ON=C2CCN(S(=O)(=O)c3ccc(OC(F)(F)F)cc3)CC2)c2cccnc2)c1 (centres unmarked) [Example 270, 3-(Pyridin-3-yl(1-(4-(trifluoromethoxy)phenylsulfonyl)piperidin-4-ylideneaminooxy)methyl)benzonitrile]"
3,≤ 1000,"N#Cc1cccc(C(COc2ccc(F)cc2)ON=C2CCN(S(=O)(=O)c3ccc(OC(F)(F)F)cc3)CC2)c1 (centres unmarked) [Example 304, 3-(2-(4-Fluorophenoxy)-1-(1-(4-(trifluoromethoxy)phenylsulfonyl)piperidin-4-ylideneaminooxy)ethyl)benzonitrile]"
4,≤ 1000,"O=S(=O)(c1ccc(OC(F)(F)F)cc1)N1CCC(=NOCc2ncccc2-c2ccccc2)CC1 [Example 313, 1-(4-(Trifluoromethoxy)phenylsulfonyl)piperidin-4-one O-(3-phenylpyridin-2-yl)methyl oxime]"
5,≤ 1000,"O=S(=O)(c1ccc(Oc2ccccc2)nc1)N1CCC(=NOCc2cccc(C(F)(F)F)c2)CC1 [Example 101, 1-(6-Phenoxypyridine-3-sulfonyl)piperidin-4-one O-(3-trifluoromethylbenzyl)oxime]"
6,≤ 1000,"COCCOc1ccc(S(=O)(=O)N2CCC(=NOCc3cccc(C(F)(F)F)c3)CC2)cc1 [Example 94, 1-[4-(2-Methoxyethoxy)benzenesulfonyl]piperidin-4-one O-(3-trifluoromethylbenzyl)oxime]"
7,≤ 1000,"O=S(=O)(c1cccc(Cl)c1)N1CCC(=NOC(c2ccc(F)cc2)c2ccc(F)cc2)CC1 [Example 292, 1-(3-Chlorophenylsulfonyl)piperidin-4-one O-bis(4-fluorophenyl)methyl oxime]"
8,≤ 1000,"N#Cc1ccc(-n2cc(CON=C3CCN(S(=O)(=O)c4ccc(OC(F)(F)F)cc4)CC3)ccc2=O)cc1 [Example 315, 4-(2-oxo-5-((1-(4-(trifluoromethoxy)phenylsulfonyl)piperidin-4-ylideneaminooxy)methyl)pyridin-1(2H)-yl)benzonitrile]"
9,≤ 1000,"COCC(ON=C1CCN(S(=O)(=O)c2ccc(OC(F)(F)F)cc2)CC1)c1cccc(C#N)c1 (centres unmarked) [Example 273, 3-(2-Methoxy-1-(1-(4-(trifluoromethoxy)phenylsulfonyl)piperidin-4-ylideneaminooxy)ethyl)benzonitrile]"
10,≤ 1000,"N#Cc1cccc(CON=C2CCN(S(=O)(=O)c3ccc(OCCF)cc3)CC2)c1 [Example 281, 3-((1-(4-(2-Fluoroethoxy)phenylsulfonyl)piperidin-4-ylideneaminooxy)methyl)benzonitrile]"
11,≤ 1000,"N#Cc1cccc(S(=O)(=O)N2CCC(=NOC(c3ccc(F)cc3)c3ccc(F)cc3)CC2)c1 [Example 267, 3-(4-(Bis(4-fluorophenyl)methoxyimino)piperidin-1-ylsulfonyl)benzonitrile]"
